Experiments:
[1] = system: activated T lymphocytes; assay: Caspase cascade activation with fluorogenic reporter, activated T lymphocytes; type: cell-based, Human; conditions: for Caspase Activity in Activated Cells 24 Hr Induction (Ratio): OKT3-activated human T lymphocytes, 24 hr incubation, ratio Net Sample RFU/Net Control RFU; for Induction of apoptosis in activated T cells (in words): 24 hr
Protocol: (§1) Human peripheral blood mononuclear cells (PBMC), were purchased from Clonetics, San Diego (cat. No. CC2702). These cells were primarily enriched in T lymphocytes by a process of leukapheresis and density gradient centrifugation (Clonetics), and contain some monocytes and no B lymphocytes or Dendritic cells. Cells are cultured (0.75×10^6 cells/ml) in RPMI 1640 medium containing 10% fetal bovine serum (Gibco), 2 mM L-Glutamine, 25 mM Hepes, 1 mM sodium pyruvate, 1 mM non-essential aminoacids (NEAA) and 1% penicillin/streptomycin solution. Cells were then activated with 100 ng/ml of murine monoclonal antibody (OKT3) to the human T cell receptor (Liu, Y-C., et al., J. Biol. Chem 272: 9979 (1996)). Cells were incubated at 37° C. in a 5% CO2-95% humidity incubator for 3 days. […] In a parallel experiment, resting T lymphocytes that were not activated by the above method were used directly in an experiment. An aliquot of 45 μl of activated or resting T lymphocytes (containing 10^5 cells) was added to a well of a 96-well microtiter plate containing 5 μl of a 10% DMSO in RPMI 1640 medium containing serial 2-fold dilution of the different test compounds starting at a concentration of 10 uM.
(§2) An aliquot of 45 μl of cells was also added to a well of a 96-well microtiter plate containing 5 μl of a 10% DMSO in RPMI 1640 medium without the test compounds as the control sample. The samples were gently mixed by agitation and then incubated at 37° C. for 24 hr in a 5% CO2-95% humidity incubator. After incubation, the samples were removed from the incubator and 50 μl of a solution containing 20 μM of N-(Ac-DEVD)-N′-ethoxycarbonyl-R110 (SEQ ID NO. 1) fluorogenic substrate U.S. Pat. No. 6,342,611; WO 99/18856), 20 mM DTT(Sigma) in Hanks Balanced Salt Solution (HBSS, Gibco) was added. The samples were mixed by agitation and incubated for 1 hr at room temperature. Using a fluorescent plate reader (Model 1420, Wallac Instruments), an initial reading (T=0) was made approximately […] after addition of the substrate solution, employing excitation at 485 nm and emission at 530 nm, to determine the background fluorescence of the control sample. After the 1 hr incubation, the samples were read for fluorescence as above (T=1 hr).
(§3) Calculation: Measured relative fluorescence unit (RFU) values were used to calculate the gain in fluorescence of the sample with the test compound as follows:
(§4) Sample RFU(T=1 hr)−Sample RFU(T=0)=Net Sample RFU (4)
(§5) and the background gain in fluorescence of the control sample (lacking the test compound) as follows:
(§6) Control RFU(I=1 hr)−Control RFU(I=0)=Net Control RFU (5)
(§7) The relative potency of a given test compound is given by the following ratio:
(§8) (Net Sample RFU)/(Net Control RFU) (6)

[2] = system: resting T lymphocytes; assay: Caspase cascade activation with fluorogenic reporter, resting T lymphocytes; type: cell-based, Human; conditions: for Induction of apoptosis in resting T cells (in words): 24 hr; for Caspase Induction in Resting T Cells 24 Hr Induction (Ratio): resting human T lymphocytes, 24 hr incubation, ratio Net Sample RFU/Net Control RFU
Protocol: as §1, §2, §3, §4, §5, §6, §7, §8

[3] = system: resting T lymphocytes; assay: Cytotoxicity with chromogenic reporter of mitochondrial activity, resting T lymphocytes; type: cell-based, Human; conditions: 48 hr, absorbance 490 nm, FIG. 1 or 2
Protocol: (§9) Human peripheral blood mononuclear cells (PBMC), were purchased from Clonetics, San Diego (cat. no. CC2702). These cells were primarily enriched in T lymphocytes by a process of leukapheresis and density gradient centrifugation (Clonetics), and contain some monocytes and no B lymphocytes or Dendritic cells. Cells are cultured (0.75×10^6 cells/ml) in RPMI 1640 medium containing 10% fetal bovine serum (Gibco), 2 mM L-Glutamine, 25 mM Hepes, 1 mM sodium pyruvate, 1 mM non essential aminoacids (NEAA) and 1% penicillin/streptomycin solution. Cells were then activated with 100 ng/ml of murine monoclonal antibody to the human T cell receptor (Liu, Y-C., et al., J. Biol. Chem. 272: 9979 (1996)). Cells were incubated at 37° C. in a 5% CO2-95% humidity incubator for 3 days. […] In a parallel experiment, resting T lymphocytes that were not activated in the above mentioned method were used directly in an experiment.
(§10) An aliquot of 45 μl of activated or resting T lymphocytes (containing 10^5 cells) was added to wells of a 96-well microtiter plate containing 5 μl of a 10% DMSO in RPMI 1640 medium containing different dilutions of the test compounds. […] Using a plate reader (Model 1420, Wallac Instruments), samples were read at absorbance 490 nm.

[4] = system: activated T lymphocytes; assay: Cytotoxicity with chromogenic reporter of mitochondrial activity, activated T lymphocytes; type: cell-based, Human; conditions: 48 hr, absorbance 490 nm, FIG. 1 or 2
Protocol: as §9, §10

[5] = system: collagen induced arthritis; assay: Collagen-induced arthritis (CIA) mouse model; type: in vivo; conditions: 1 mg/kg subcutaneously daily from 2nd immunization (Day 21), DBA/1 mice, FIG. 3

SMILES	Caspase Activity in Activated Cells 24 Hr Induction (Ratio) [1]	Induction of apoptosis in activated T cells (in words) [1]	Induction of apoptosis in resting T cells (in words) [2]	Caspase Induction in Resting T Cells 24 Hr Induction (Ratio) [2]	Cytotoxicity to resting T cells (in words) [3]	Cytotoxicity to activated T cells (in words) [4]	Decrease in cumulative CIA score [5] [%]
Cc1ccc(C2CC(c3c(O)cc(C)oc3=O)=NCCS2)cc1 (stereo not shown) [5-(4-hydroxy-6-methyl-2H-pyran-2-one-3-yl)-7-(4-methylphenyl)-2,3,6,7-tetrahydro-1,4-thiazepine]	1.0	did not induce apoptosis in either cell type	did not induce apoptosis in either cell type	1.0	–	–	–
CC(C)=CCC[C@]1(C)C=Cc2c(O)c3c(c(CC=C(C)C)c2O1)O[C@]12C(=C[C@@H]4C[C@H]1C(C)(C)O[C@@]2(C/C=C(/C)C(=O)O)C4=O)C3=O [gambogic acid]	3.4	induced apoptosis in both activated and resting T cells	induced apoptosis in both activated and resting T cells	2.0	–	–	–
CN(Cc1cnc2nc(N)nc(N)c2n1)c1ccc(C(=O)N[C@@H](CCC(=O)O)C(=O)O)cc1 [methotrexate]	–	–	–	–	not to resting T lymphocytes	only cytotoxic to activated	–
C[C@]12C=CC(=O)C=C1CC[C@@H]1[C@@H]2[C@@H](O)C[C@@]2(C)[C@H]1CC[C@]2(O)C(=O)CO [predisolone, Prednisolone]	–	–	–	–	–	–	75
CN[C@@H]1C[C@H]2O[C@@](C)([C@@H]1OC)n1c3ccccc3c3c4c(c5c6ccccc6n2c5c31)C(=O)NC4 [staurosporine]	–	–	–	–	cytotoxic to both activated and resting T cells	cytotoxic to both activated and resting T cells	–
